Experimental data as given in ChEMBL document CHEMBL3886674, “Aminopyrimidine derivatives for use as modulators of kinase activity” (2016).

Biological target: Ribosomal protein S6 kinase beta-1 (Homo sapiens, UniProt P23443, T412E)
Assay: Enzyme Assay: P70S6K inhibitor compounds were diluted and plated in 96 well plates. A reaction mixture including the following components was then added to the compound plate to initiate the enzyme reaction; P70S6K (3 nM, T412E mutant, Millipore) was mixed with 24 μM ATP in an assay buffer containing 100 mM Hepes (pH 7.5), 5 mM MgCl2, 1 mM DTT, 0.015% Brij and 1 μM of the substrate peptide FITC-AHA-AKRRRLSSLRA-OH (derived from the S6 ribosomal protein sequence, FITC=fluorescein isothiocyanate, AHA=6-aminohexanoic acid). The reaction was incubated for 90 min at 25° C., before the addition of 10 mM EDTA to stop the reaction.

Chain of Ribosomal protein S6 kinase beta-1 (P23443 whole entry T412E): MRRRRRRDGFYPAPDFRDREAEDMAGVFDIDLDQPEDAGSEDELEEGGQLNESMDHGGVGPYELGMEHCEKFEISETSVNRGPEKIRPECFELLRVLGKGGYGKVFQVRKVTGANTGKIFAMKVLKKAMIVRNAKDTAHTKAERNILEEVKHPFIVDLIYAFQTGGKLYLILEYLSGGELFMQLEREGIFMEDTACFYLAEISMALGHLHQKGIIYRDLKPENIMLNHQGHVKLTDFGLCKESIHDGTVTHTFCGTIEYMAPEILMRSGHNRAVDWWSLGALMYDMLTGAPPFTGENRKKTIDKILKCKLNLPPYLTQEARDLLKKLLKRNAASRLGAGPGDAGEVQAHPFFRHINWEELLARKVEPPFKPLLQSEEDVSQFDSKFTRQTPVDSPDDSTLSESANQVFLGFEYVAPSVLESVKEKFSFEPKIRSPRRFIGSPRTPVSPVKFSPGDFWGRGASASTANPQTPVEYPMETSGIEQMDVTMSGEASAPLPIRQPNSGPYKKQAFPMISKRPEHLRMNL

IC50 | Compound
27 nM | Nc1ncnc(N2CCC(C(N)c3ccc(F)cc3)CC2)c1-c1ccc(F)cc1 (stereo not drawn)
17 nM | Nc1ncnc(N2CCC(C(N)c3ccc(-c4ccc(F)cc4)cc3)CC2)c1-c1ccc(F)cc1 (stereo not drawn)
13 nM | Nc1ncnc(N2CCC(C(N)c3ccc(Cl)cc3)CC2)c1-c1ccc(F)cc1 (stereo not drawn)
